Experimental findings from ChEMBL document CHEMBL5346897, “smProdrugs: A repository of small molecule prodrugs” (Eur J Med Chem, 2023) are described below.

≈ marks a conversion by molar mass, not a printed value.

Series [1] in a line: Solubility of the compound. Format: physicochemical.
Series [2] in a line: Lipophilicity, logP of the compound. The note with it: octanol/water. Format: physicochemical.

As a reminder, the solubility is the dissolved amount per volume that the medium holds. What is called logP is the decadic logarithm of the partition coefficient of the neutral form, usually between octanol and water. A lower logP goes with lower lipophilicity. Compound `CCOC(=O)OC(C)OC(=O)[C@@H]1N2C(=O)[C@@H](NC(=O)[C@H](N)c3ccccc3)[C@H]2SC1(C)C` (some centres not stated) [BACAMPICILLIN] yielded a solubility in series [1] of 123 µg/mL (≈ 264 µM). Also, the logP in series [2] stood at 0.88.
